For test [1], the target named is T1, MvMak (Mycolicibacterium austroafricanum, UniProt A1TH50).
T1 construct: gene mak; recombinant, produced as previously described
The test can be described thus: ADP-Glo kinase assay, relative activity. It is filed as biochemical. To be noted: 5 mM sugar, 1 mM ATP, 2 μM enzyme, room temperature, 5 min.

For test [2], the target named is T2, SjGlcNK (Streptacidiphilus jiangxiensis, UniProt A0A1H7TQR5).
T2 construct: gene SAMN05414137_114149; recombinant, E. coli BL21(DE3), nickel NTA and size exclusion; monomer in solution; C-lobe residues 194-438
T2 sequence (A0A1H7TQR5 1-438): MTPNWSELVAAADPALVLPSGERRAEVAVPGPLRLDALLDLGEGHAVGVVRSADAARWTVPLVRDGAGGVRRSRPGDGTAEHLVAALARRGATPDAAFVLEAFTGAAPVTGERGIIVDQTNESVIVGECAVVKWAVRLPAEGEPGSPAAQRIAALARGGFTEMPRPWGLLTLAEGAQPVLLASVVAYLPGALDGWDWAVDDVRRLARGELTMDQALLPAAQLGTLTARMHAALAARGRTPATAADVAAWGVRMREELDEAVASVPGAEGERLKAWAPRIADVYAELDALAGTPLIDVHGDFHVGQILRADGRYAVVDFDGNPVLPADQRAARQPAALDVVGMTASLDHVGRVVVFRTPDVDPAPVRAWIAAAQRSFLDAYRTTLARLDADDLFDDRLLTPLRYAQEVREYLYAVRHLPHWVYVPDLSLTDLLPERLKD
Briefly: kinase kinetics, Michaelis-Menten fit. It is filed as biochemical. To be noted: co-substrate ATP.

By Km is commonly meant the concentration of substrate that gives half-maximal velocity.

T1 sequence (A1TH50 whole entry): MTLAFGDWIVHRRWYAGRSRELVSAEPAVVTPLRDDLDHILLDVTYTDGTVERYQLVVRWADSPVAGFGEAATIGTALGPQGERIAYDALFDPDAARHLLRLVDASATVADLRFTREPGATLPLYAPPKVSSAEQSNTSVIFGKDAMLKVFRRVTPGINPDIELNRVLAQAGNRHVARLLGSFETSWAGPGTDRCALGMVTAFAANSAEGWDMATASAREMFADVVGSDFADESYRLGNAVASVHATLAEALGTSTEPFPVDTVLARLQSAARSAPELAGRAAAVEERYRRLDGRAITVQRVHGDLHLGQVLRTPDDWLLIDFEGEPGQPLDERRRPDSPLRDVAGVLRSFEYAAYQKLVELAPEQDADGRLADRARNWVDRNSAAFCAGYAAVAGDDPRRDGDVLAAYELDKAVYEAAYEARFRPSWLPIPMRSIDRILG

As for `OC[C@H]1O[C@H](O[C@H]2[C@H](O)[C@@H](O)C(O)O[C@@H]2CO)[C@H](O)[C@@H](O)[C@@H]1O` (some centres unmarked) [maltose], the “ADP-Glo kinase assay, relative activity” value in test [1] is “MvMak uses exclusively maltose as the substrate acceptor”. For the compound `OC[C@H]1OC(O)[C@H](O)[C@@H](O)[C@@H]1O` (some centres unmarked) [glucose], the Km in test [2] was above 100 mM.
